Experimental data from patent publication US9480259B2, “Pyrazolopyrans having herbicidal and pharmaceutical properties” (BASF SE, priority 2012, dated 2016).

Molecular target: Arabidopsis thaliana SHMT
Test: SHMT activity assay (ED50 SHMT), coupled with N5,N10-CH2-THF dehydrogenase, NADH at 340 nm
Type: biochemical
Settings: inhibition of initial velocity of Arabidopsis thaliana SHMT
Procedure, shortened: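 His-tagged SHMT purified on Ni-NTA. NADH formation followed at 340 nm for 30 min; ED50 from inhibition of initial velocity.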

| Compound | EC50 [µM] |
| --- | --- |
| Cc1n[nH]c2c1C(c1ccc(-c3cccc(F)c3)s1)(C1CCC1)C(C#N)=C(N)O2 (centres unmarked) [Compound 4.14] | < 0.01 |
| Cc1n[nH]c2c1C(c1cc(-c3cccs3)cs1)(C1CCC1)C(C#N)=C(N)O2 (centres unmarked) [Compound 4.16] | < 0.01 |
| Cc1n[nH]c2c1C(c1ccc(-c3ccccc3F)s1)(C1CCC1)C(C#N)=C(N)O2 (centres unmarked) [Compound 4.17] | < 0.01 |
| Cc1ccc2cc(C3(C4CCC4)C(C#N)=C(N)Oc4[nH]nc(C)c43)cc(C(F)(F)F)c2n1 (centres unmarked) [Compound 4.19] | < 0.01 |
| Cc1n[nH]c2c1C(c1ccc(-c3ccc(Cl)cc3)s1)(C1CCC1)C(C#N)=C(N)O2 (centres unmarked) [Compound 4.20] | < 0.01 |
| Cc1n[nH]c2c1C(c1cc3cc(C(F)(F)F)ccc3s1)(C1CCC1)C(C#N)=C(N)O2 (centres unmarked) [Compound 4.22] | < 0.01 |
| Cc1n[nH]c2c1C(c1cc(F)c3c(c1)C=CC(C)(C)O3)(C1CCC1)C(C#N)=C(N)O2 (centres unmarked) [Compound 4.23] | < 0.01 |
| Cc1n[nH]c2c1C(c1cc(-c3ccccc3)cs1)(C1CCC1)C(C#N)=C(N)O2 (centres unmarked) [Compound 4.24] | < 0.01 |
| Cc1n[nH]c2c1C(c1cc(-c3ccsc3)cs1)(C1CCC1)C(C#N)=C(N)O2 (centres unmarked) [Compound 4.33] | < 0.01 |
| Cc1n[nH]c2c1C(c1ccc(-c3ccccc3C(F)(F)F)s1)(C1CCC1)C(C#N)=C(N)O2 (centres unmarked) [Compound 4.34] | < 0.01 |
| COc1ccc2cc(C3(C4CCC4)C(C#N)=C(N)Oc4[nH]nc(C)c43)ccc2c1 (centres unmarked) [Compound 4.36] | < 0.01 |
| Cc1n[nH]c2c1C(c1cc3c(C(F)(F)F)cccc3s1)(C1CCC1)C(C#N)=C(N)O2 (centres unmarked) [Compound 4.38] | < 0.01 |
| Cc1n[nH]c2c1C(c1cc(-c3ccco3)cs1)(C1CCC1)C(C#N)=C(N)O2 (centres unmarked) [Compound 4.41] | < 0.01 |
| Cc1n[nH]c2c1C(c1nc3c(Cl)cccc3s1)(C1CCC1)C(C#N)=C(N)O2 (centres unmarked) [Compound 4.45] | < 0.01 |
| Cc1n[nH]c2c1C(c1cc(-c3cccc(F)c3)cs1)(C1CCC1)C(C#N)=C(N)O2 (centres unmarked) [Compound 4.47] | < 0.1 |
| Cc1n[nH]c2c1C(c1ccc3[nH]c(C(F)(F)F)nc3c1)(C1CCC1)C(C#N)=C(N)O2 (centres unmarked) [Compound 4.48] | < 0.1 |
| Cc1n[nH]c2c1C(c1ccc3c(c1)nnn3C)(C1CCC1)C(C#N)=C(N)O2 (centres unmarked) [Compound 4.49] | < 0.1 |
| COc1c(F)cc(-c2ccc(C3(C4CCC4)C(C#N)=C(N)Oc4[nH]nc(C)c43)s2)cc1F (centres unmarked) [Compound 4.50] | < 0.1 |
| Cc1n[nH]c2c1C(c1cc3ccccc3o1)(C1CCC1)C(C#N)=C(N)O2 (centres unmarked) [Compound 4.52] | < 0.1 |
| Cc1n[nH]c2c1C(c1ccc(-c3cccc(C(F)(F)F)c3)s1)(C1CC1)C(C#N)=C(N)O2 (centres unmarked) [Compound 4.53] | < 0.1 |
| Cc1n[nH]c2c1C(c1ccc(-c3ccccc3)s1)(C1CC1)C(C#N)=C(N)O2 (centres unmarked) [Compound 4.55] | < 0.1 |
| Cc1n[nH]c2c1C(c1ccc(-c3cccc(F)c3)s1)(C1CC1)C(C#N)=C(N)O2 (centres unmarked) [Compound 4.56] | < 0.1 |
| CCC1(c2cc(-c3cccs3)cs2)C(C#N)=C(N)Oc2[nH]nc(C)c21 (centres unmarked) [Compound 4.61] | < 0.1 |
| CCC1(c2ccc3c(c2)C(C)(C)CCC3(C)C)C(C#N)=C(N)Oc2[nH]nc(C)c21 (centres unmarked) [Compound 4.69] | < 1 |
| CCC1(c2ccc3c(c2)C(C)(C)C(C)C3(C)C)C(C#N)=C(N)Oc2[nH]nc(C)c21 (centres unmarked) [Compound 4.71] | < 1 |
| CCC1(c2ccc3[nH]c(=O)oc3c2)C(C#N)=C(N)Oc2[nH]nc(C)c21 (centres unmarked) [Compound 4.72] | < 1 |
| COc1ccc2cc(C3(C4CCC4)C(C#N)=C(N)Oc4[nH]nc(CO)c43)ccc2c1 (centres unmarked) [Compound 4.77] | < 1 |
| CCC1(c2cc(C)co2)C(C#N)=C(N)Oc2[nH]nc(C)c21 (centres unmarked) [Compound 4.79] | < 10 |

More lines, now with the values ahead:

| EC50 [µM] | Compound |
| --- | --- |
| < 0.01 | Cc1ccc(-c2ccc(C3(C4CCC4)C(C#N)=C(N)Oc4[nH]nc(C)c43)s2)cc1 (centres unmarked) [Compound 4.13] |
| < 0.01 | Cc1n[nH]c2c1C(c1cc(Cl)c3c(c1)OCCO3)(C(C)C)C(C#N)=C(N)O2 (centres unmarked) [Compound 4.15] |
| < 0.01 | Cc1n[nH]c2c1C(c1ccc3c(c1)C(F)(F)CCO3)(C1CCC1)C(C#N)=C(N)O2 (centres unmarked) [Compound 4.18] |
| < 0.01 | Cc1n[nH]c2c1C(c1ccc3c(c1)OC(F)(F)O3)(C1CCC1)C(C#N)=C(N)O2 (centres unmarked) [Compound 4.25] |
| < 0.01 | Cc1n[nH]c2c1C(c1ccc(-c3ccc(C(F)(F)F)cc3)s1)(C1CCC1)C(C#N)=C(N)O2 (centres unmarked) [Compound 4.26] |
| < 0.01 | COC(=O)c1ccc(C2(C3CCC3)C(C#N)=C(N)Oc3[nH]nc(C)c32)s1 (centres unmarked) [Compound 4.27] |
| < 0.01 | Cc1n[nH]c2c1C(c1cc3ccccc3s1)(C1CCC1)C(C#N)=C(N)O2 (centres unmarked) [Compound 4.28] |
| < 0.01 | Cc1cccc(-c2ccc(C3(C4CCC4)C(C#N)=C(N)Oc4[nH]nc(C)c43)s2)c1 (centres unmarked) [Compound 4.29] |
| < 0.01 | COC(=O)c1csc(C2(C3CCC3)C(C#N)=C(N)Oc3[nH]nc(C)c32)c1 (centres unmarked) [Compound 4.30] |
| < 0.01 | CC1(C)C=Cc2cc(C3(C4CCC4)C(C#N)=C(N)Oc4[nH]ncc43)cc(F)c2O1 (centres unmarked) [Compound 4.31] |
| < 0.01 | Cc1n[nH]c2c1C(c1ccc3c(c1)CCO3)(C1CCC1)C(C#N)=C(N)O2 (centres unmarked) [Compound 4.32] |
| < 0.01 | Cc1n[nH]c2c1C(c1cncc(C(F)(F)F)c1)(C1CCC1)C(C#N)=C(N)O2 (centres unmarked) [Compound 4.35] |
| < 0.01 | Cc1n[nH]c2c1C(c1nc3ccc(Cl)cc3o1)(C1CCC1)C(C#N)=C(N)O2 (centres unmarked) [Compound 4.37] |
| < 0.01 | Cc1n[nH]c2c1C(c1cc(C(F)(F)F)c3nc(C(=O)O)ccc3c1)(C1CCC1)C(C#N)=C(N)O2 (centres unmarked) [Compound 4.39] |
| < 0.01 | Cc1n[nH]c2c1C(c1ccc3c(c1)nnn3C(C)C)(C1CCC1)C(C#N)=C(N)O2 (centres unmarked) [Compound 4.42] |
| < 0.01 | Cc1n[nH]c2c1C(c1ccc(-c3cccc(C(F)(F)F)c3)s1)(C1CCC1)C(C#N)=C(N)O2 (centres unmarked) [Compound 4.43] |
| < 0.01 | Cc1n[nH]c2c1C(c1ccc3c(c1)OCO3)(C1CCC1)C(C#N)=C(N)O2 (centres unmarked) [Compound 4.44] |
| < 0.01 | Cc1n[nH]c2c1C(c1nc3ccccc3o1)(C1CCC1)C(C#N)=C(N)O2 (centres unmarked) [Compound 4.46] |
| < 0.1 | N#CC1=C(N)Oc2[nH]ncc2C1(c1cc2ccccc2o1)C1CCC1 (centres unmarked) [Compound 4.54] |
| < 0.1 | Cc1n[nH]c2c1C(c1cc(-c3cccc(F)c3)cs1)(C1CC1)C(C#N)=C(N)O2 (centres unmarked) [Compound 4.60] |
| < 1 | Cc1n[nH]c2c1C(c1cc3ccc(Cl)cc3s1)(C1CCC1)C(C#N)=C(N)O2 (centres unmarked) [Compound 4.63] |
| < 1 | Cc1n[nH]c2c1C(c1cc(-c3ccccc3)cs1)(C1CC1)C(C#N)=C(N)O2 (centres unmarked) [Compound 4.64] |
| < 1 | Cc1n[nH]c2c1C(c1cc(C(=O)O)cs1)(C1CCC1)C(C#N)=C(N)O2 (centres unmarked) [Compound 4.66] |
| < 1 | Cc1n[nH]c2c1C(C(C)C)(C(F)(F)c1cccc(Cl)c1)C(C#N)=C(N)O2 (centres unmarked) [Compound 4.67] |
| < 1 | Cc1n[nH]c2c1C(c1cc(-c3cccc(C(F)(F)F)c3)cs1)(C1CCC1)C(C#N)=C(N)O2 (centres unmarked) [Compound 4.68] |
| < 1 | Cc1n[nH]c2c1C(c1ccc(Cl)s1)(C1CC1)C(C#N)=C(N)O2 (centres unmarked) [Compound 4.74] |
| < 1 | CCC1(CCc2ccccc2)C(C#N)=C(N)Oc2[nH]nc(C)c21 (centres unmarked) [Compound 4.76] |
| < 10 | CCc1n[nH]c2c1C(c1ccc(Cl)s1)(C1CC1)C(C#N)=C(N)O2 (centres unmarked) [Compound 4.78] |
